Measurements taken from patent US5502060A, “HIV protease inhibitors” (Merck & Co., Inc., priority 1994, dated 1996).

Target: HIV protease (Human immunodeficiency virus type 1 group M subtype B, UniProt P03366)
Assay: biochemical
Conditions: protease expressed in Escherichia coli; peptide substrate Val-Ser-Gln-Asn-(betanapthyl)Ala-Pro-Ile-Val; 50 mM Na acetate, pH 5.5, 30° C., 1 hour; HPLC
Method: Assay for Inhibition of Microbial Expressed Viral Protease
Inhibition studies of the reaction of the protease expressed in Escherichia coli with a peptide substrate Val-Ser-Gln-Asn-(betanapthyl)Ala-Pro-Ile-Val, 0.5 mg/mL at the time the reaction is initiated! were in 50 mM Na acetate, pH 5.5, at 30° C. for 1 hour. Various concentrations of inhibitor in 1.0 ul DMSO were added to 25 ul of the peptide solution in water. The reaction is initiated by the addition of 15 ul of 0.33 nM protease (0.11 ng) in a solution of 0.133 M Na acetate pH 5.5 and 0.26% bovine serum albumin. The reaction was quenched with 160 ul of 5% phosphoric acid. Products of the reaction were separated by HPLC (VYDAC wide pore 5 cm C-18reverse phase, acetonitrile gradient, 0.1% phosphoric acid). The extent of inhibition of the reaction was determined from the peak heights of the products.

Structure (SMILES) | IC50 [µM]
CC(C)(C)NC(=O)[C@@H]1C[C@@H]2CCCC[C@@H]2CN1C[C@@H](O)[C@H](Cc1ccccc1)NC(=O)O[C@H]1CCS(=O)(=O)C1 [B, Cis-N-tert-butyl-decahydro-2 2(R)-hydroxy-4-phenyl-3(S)-3(S)-1,1-dioxotetr ahydrothien-3-yloxycarbonylamino !-butyl!-(4aS, 8aS )-isoquinoline-3(S)-carboxamide hydrate] | ~0.059
CC(C)(C)NC(=O)[C@@H]1C[C@@H]2CCCC[C@@H]2CN1C[C@@H](O)[C@H](Cc1ccccc1)NC(=O)O[C@H]1CCOC1 [Compound A, cis-N-tert-butyl-decahydro-2 2(R)hydroxy-4-phenyl-3(S)-3(S)-tetrahydrofuranyloxycarbonylamino !-butyl!-(4aS, 8aS )-isoquinoline-3(S)carboxamide] | ~0.26
CC(C)[C@@H]1[C@H](OC(=O)N[C@@H](Cc2ccccc2)[C@H](O)CN2C[C@H]3CCCC[C@H]3C[C@H]2C(=O)NC(C)(C)C)CCS1(=O)=O [Compound C, N-tert-butyl-decahydro-2 2(R)-hydroxy-4-phenyl-3(S)-1,1-dioxo-2(R)-methylethyl-3(R)-tetrahydrothienyloxycarbonylamino!butyl!-(4aS, 8aS) isoquinoline-3(S)-carboxamide] | ~0.004
